{"source": "patent US10787452B2", "about": "(Vertex Pharmaceuticals Incorporated, priority 2012, dated 2020)", "data": [{"test_system": "HCT116 colorectal cancer cells", "assay": "Cisplatin sensitization assay (96 h cell viability MTS);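 note: compound concentration needed to lower the Cisplatin-alone IC50 by a set fold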", "type": "cell-based", "conditions": "96 h MTS, compound plus Cisplatin", "how_it_was_run": "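Test compound and cisplatin were added together as a full matrix of 2-fold serial dilutions, each from a top final concentration of 10 μM. Cells were incubated 96 h at 37° C in 5% CO2, then viability was read by MTS after a further 1 h incubation.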", "values": [{"smiles": "N#CCc1cnc2c(C(=O)Nc3cnccc3OC3CCC3)c(N)nn2c1", "note": "[I-O-36, 2-amino-6-(cyanomethyl)-N-(4-cyclobutoxypyridin-3-yl)pyrazolo[1,5-a]pyrimidine-3-carboxamide]", "Cisplatin Sensitization Assay": "+++ (Compounds with a Cisplatin sensitization value of <0.02 μM are marked with “+++.”)"}, {"smiles": "CS(=O)(=O)C1CCN(c2c(F)cncc2NC(=O)c2c(N)nn3cc(F)cnc23)CC1", "note": "[I-N-165, 2-amino-6-fluoro-N-(5-fluoro-4-(4-(methylsulfonyl)piperidin-1-yl)pyridin-3-yl)pyrazolo[1,5-a]pyrimidine-3-carboxamide]", "Cisplatin Sensitization Assay": "+++ (Compounds with a Cisplatin sensitization value of <0.02 μM are marked with “+++.”)"}, {"smiles": "Nc1nn2cc(F)cnc2c1C(=O)Nc1cncc(F)c1N1CCS(=O)(=O)CC1", "note": "[I-N-250, 2-amino-N-(4-(1,1-dioxidothiomorpholino)-5-fluoropyridin-3-yl)-6-fluoropyrazolo[1,5-a]pyrimidine-3-carboxamide]", "Cisplatin Sensitization Assay": "++ (Compounds with a Cisplatin sensitization value >0.02 μM but <0.2 μM are marked with “++.”)"}, {"smiles": "CN1CC2(CCN(c3ccncc3NC(=O)c3c(N)nn4cc(F)cnc34)CC2)OC1=O", "note": "[I-N-216, 2-amino-6-fluoro-N-(4-(3-methyl-2-oxo-1-oxa-3,8-diazaspiro[4.5]decan-8-yl)pyridin-3-yl)pyrazolo[1,5-a]pyrimidine-3-carboxamide]", "Cisplatin Sensitization Assay": "+++ (Compounds with a Cisplatin sensitization value of <0.02 μM are marked with “+++.”)"}, {"smiles": "Nc1nn2cc(F)cnc2c1C(=O)Nc1cnccc1N1CCC(C(=O)N2CCOCC2)CC1", "note": "[I-G-85, 2-amino-6-fluoro-N-(4-(4-(morpholine-4-carbonyl)piperidin-1-yl)pyridin-3-yl)pyrazolo[1,5-a]pyrimidine-3-carboxamide]", "Cisplatin Sensitization Assay": "+++ (Compounds with a Cisplatin sensitization value of <0.02 μM are marked with “+++.”)"}, {"smiles": "CN(C)CCCOc1ccncc1NC(=O)c1c(N)nn2cc(Cl)cnc12", "note": "[I-O-52, 2-amino-6-chloro-N-(4-(3-(dimethylamino)propoxy)pyridin-3-yl)pyrazolo[1,5-a]pyrimidine-3-carboxamide]", "Cisplatin Sensitization Assay": "+ (Compounds with a Cisplatin sensitization value >0.2 μM but <5 μM are marked with “+.”)"}, {"smiles": "Nc1nn2cc(F)cnc2c1C(=O)Nc1cncc(F)c1N1CCN(C2CCOCC2)CC1", "note": "[I-N-121, 2-amino-6-fluoro-N-(5-fluoro-4-(4-(tetrahydro-2H-pyran-4-yl)piperazin-1-yl)pyridin-3-yl)pyrazolo[1,5-a]pyrimidine-3-carboxamide]", "Cisplatin Sensitization Assay": "+++ (Compounds with a Cisplatin sensitization value of <0.02 μM are marked with “+++.”)"}, {"smiles": "Nc1nn2cc(F)cnc2c1C(=O)Nc1cncc(F)c1N1CCN(C(=O)C2CC2)CC1", "note": "[I-N-276, 2-amino-N-(4-(4-(cyclopropanecarbonyl)piperazin-1-yl)-5-fluoropyridin-3-yl)-6-fluoropyrazolo[1,5-a]pyrimidine-3-carboxamide]", "Cisplatin Sensitization Assay": "+++ (Compounds with a Cisplatin sensitization value of <0.02 μM are marked with “+++.”)"}, {"smiles": "Nc1nn2cc(F)cnc2c1C(=O)Nc1cncc(F)c1N1CCC(C(=O)N2CCN3CCC2CC3)CC1", "note": "[I-G-7, N-(4-(4-(1,4-diazabicyclo[3.2.2]nonane-4-carbonyl)piperidin-1-yl)-5-fluoropyridin-3-yl)-2-amino-6-fluoropyrazolo[1,5-a]pyrimidine-3-carboxamide]", "Cisplatin Sensitization Assay": "+++ (Compounds with a Cisplatin sensitization value of <0.02 μM are marked with “+++.”)"}, {"smiles": "N#CCc1cnc2c(C(=O)Nc3cnccc3O[C@H]3CCOC3)c(N)nn2c1", "note": "[I-O-42, (S)-2-amino-6-(cyanomethyl)-N-(4-((tetrahydrofuran-3-yl)oxy)pyridin-3-yl)pyrazolo[1,5-a]pyrimidine-3-carboxamide]", "Cisplatin Sensitization Assay": "+++ (Compounds with a Cisplatin sensitization value of <0.02 μM are marked with “+++.”)"}, {"smiles": "CN(C)CC1CCN(c2ccncc2NC(=O)c2c(N)nn3cc(Cl)cnc23)CC1", "note": "[I-N-45, 2-amino-6-chloro-N-(4-(4-((dimethylamino)methyl)piperidin-1-yl)pyridin-3-yl)pyrazolo[1,5-a]pyrimidine-3-carboxamide]", "Cisplatin Sensitization Assay": "++ (Compounds with a Cisplatin sensitization value >0.02 μM but <0.2 μM are marked with “++.”)"}, {"smiles": "Nc1nn2cc(F)cnc2c1C(=O)Nc1cncc(C2CC2)c1N1CCN([C@@H]2CCOC2)CC1", "note": "[I-N-119, (R)-2-amino-N-(5-cyclopropyl-4-(4-(tetrahydrofuran-3-yl)piperazin-1-yl)pyridin-3-yl)-6-fluoropyrazolo[1,5-a]pyrimidine-3-carboxamide]", "Cisplatin Sensitization Assay": "++ (Compounds with a Cisplatin sensitization value >0.02 μM but <0.2 μM are marked with “++.”)"}, {"smiles": "Nc1nn2cc(F)cnc2c1C(=O)Nc1cncc(F)c1N1CCC(C(=O)N2CC(N3CCCC3)C2)CC1", "note": "[I-G-43, 2-amino-6-fluoro-N-(5-fluoro-4-(4-(3-(pyrrolidin-1-yl)azetidine-1-carbonyl)piperidin-1-yl)pyridin-3-yl)pyrazolo[1,5-a]pyrimidine-3-carboxamide]", "Cisplatin Sensitization Assay": "+++ (Compounds with a Cisplatin sensitization value of <0.02 μM are marked with “+++.”)"}, {"smiles": "Nc1nn2cc(Cl)cnc2c1C(=O)Nc1cnccc1OC1CC2(CNC2)C1", "note": "[I-O-72, N-(4-(2-azaspiro[3.3]heptan-6-yloxy)pyridin-3-yl)-2-amino-6-chloropyrazolo[1,5-a]pyrimidine-3-carboxamide]", "Cisplatin Sensitization Assay": "+ (Compounds with a Cisplatin sensitization value >0.2 μM but <5 μM are marked with “+.”)"}, {"smiles": "Nc1nn2cc(F)cnc2c1C(=O)Nc1cncc(F)c1N1CCN(C(=O)CN2CCCC2)CC1", "note": "[I-N-187, 2-amino-6-fluoro-N-(5-fluoro-4-(4-(2-(pyrrolidin-1-yl)acetyl)piperazin-1-yl)pyridin-3-yl)pyrazolo[1,5-a]pyrimidine-3-carboxamide]", "Cisplatin Sensitization Assay": "+++ (Compounds with a Cisplatin sensitization value of <0.02 μM are marked with “+++.”)"}, {"smiles": "Nc1nn2cc(F)cnc2c1C(=O)Nc1cncc(F)c1N1CCC(OCCN2CCCC2)CC1", "note": "[I-N-167, 2-amino-6-fluoro-N-(5-fluoro-4-(4-(2-(pyrrolidin-1-yl)ethoxy)piperidin-1-yl)pyridin-3-yl)pyrazolo[1,5-a]pyrimidine-3-carboxamide]", "Cisplatin Sensitization Assay": "+++ (Compounds with a Cisplatin sensitization value of <0.02 μM are marked with “+++.”)"}, {"smiles": "N#CCc1cnc2c(C(=O)Nc3cnccc3-c3ccccc3)c(N)nn2c1", "note": "[I-C-6, 2-amino-6-(cyanomethyl)-N-(4-phenylpyridin-3-yl)pyrazolo[1,5-a]pyrimidine-3-carboxamide]", "Cisplatin Sensitization Assay": "+++ (Compounds with a Cisplatin sensitization value of <0.02 μM are marked with “+++.”)"}, {"smiles": "Nc1nn2cc(F)cnc2c1C(=O)Nc1cnccc1N1CCCCCC1", "note": "[I-N-264, 2-amino-N-(4-(azepan-1-yl)pyridin-3-yl)-6-fluoropyrazolo[1,5-a]pyrimidine-3-carboxamide]", "Cisplatin Sensitization Assay": "+ (Compounds with a Cisplatin sensitization value >0.2 μM but <5 μM are marked with “+.”)"}, {"smiles": "CN1CCN(c2ccncc2NC(=O)c2c(N)nn3cc(Cl)cnc23)CC1", "note": "[I-N-59, 2-amino-6-chloro-N-(4-(4-methylpiperazin-1-yl)pyridin-3-yl)pyrazolo[1,5-a]pyrimidine-3-carboxamide]", "Cisplatin Sensitization Assay": "++ (Compounds with a Cisplatin sensitization value >0.02 μM but <0.2 μM are marked with “++.”)"}, {"smiles": "CN1CCN(C2CCN(c3c(F)cncc3NC(=O)c3c(N)nn4cc(F)cnc34)CC2)C(=O)C1", "note": "[I-N-151, 2-amino-6-fluoro-N-(5-fluoro-4-(4-(4-methyl-2-oxopiperazin-1-yl)piperidin-1-yl)pyridin-3-yl)pyrazolo[1,5-a]pyrimidine-3-carboxamide]", "Cisplatin Sensitization Assay": "+ (Compounds with a Cisplatin sensitization value >0.2 μM but <5 μM are marked with “+.”)"}, {"smiles": "CN1CCN(C(=O)c2ccc(-c3ccncc3NC(=O)c3c(N)nn4cc(F)cnc34)cc2)CC1", "note": "[I-C-25, 2-amino-6-fluoro-N-(4-(4-(4-methylpiperazine-1-carbonyl)phenyl)pyridin-3-yl)pyrazolo[1,5-a]pyrimidine-3-carboxamide]", "Cisplatin Sensitization Assay": "+++ (Compounds with a Cisplatin sensitization value of <0.02 μM are marked with “+++.”)"}, {"smiles": "CN1CCN(C(=O)C2CCN(c3c(F)cncc3NC(=O)c3c(N)nn4cc(F)cnc34)CC2)CC1", "note": "[I-G-4, 2-amino-6-fluoro-N-(5-fluoro-4-(4-(4-methylpiperazine-1-carbonyl)piperidin-1-yl)pyridin-3-yl)pyrazolo[1,5-a]pyrimidine-3-carboxamide]", "Cisplatin Sensitization Assay": "+++ (Compounds with a Cisplatin sensitization value of <0.02 μM are marked with “+++.”)"}, {"smiles": "CN1CCN(c2ccncc2NC(=O)c2c(N)nn3cc(F)cnc23)CC1", "note": "[I-N-3, 2-amino-6-fluoro-N-(4-(4-methylpiperazin-1-yl)pyridin-3-yl)pyrazolo[1,5-a]pyrimidine-3-carboxamide]", "Cisplatin Sensitization Assay": "+++ (Compounds with a Cisplatin sensitization value of <0.02 μM are marked with “+++.”)"}, {"smiles": "Nc1nn2cc(Cl)cnc2c1C(=O)Nc1cnccc1O[C@H]1CCOC1", "note": "[I-O-58, (S)-2-amino-6-chloro-N-(4-((tetrahydrofuran-3-yl)oxy)pyridin-3-yl)pyrazolo[1,5-a]pyrimidine-3-carboxamide]", "Cisplatin Sensitization Assay": "+++ (Compounds with a Cisplatin sensitization value of <0.02 μM are marked with “+++.”)"}, {"smiles": "Nc1nn2cc(F)cnc2c1C(=O)Nc1cncc(F)c1N1CCN(C(=O)C2CNC2)CC1", "note": "[I-N-168, 2-amino-N-(4-(4-(azetidine-3-carbonyl)piperazin-1-yl)-5-fluoropyridin-3-yl)-6-fluoropyrazolo[1,5-a]pyrimidine-3-carboxamide]", "Cisplatin Sensitization Assay": "+ (Compounds with a Cisplatin sensitization value >0.2 μM but <5 μM are marked with “+.”)"}, {"smiles": "CN1CCN(c2c(Cl)cncc2NC(=O)c2c(N)nn3cc(Cl)cnc23)CC1", "note": "[I-N-41, 2-amino-6-chloro-N-(5-chloro-4-(4-methylpiperazin-1-yl)pyridin-3-yl)pyrazolo[1,5-a]pyrimidine-3-carboxamide]", "Cisplatin Sensitization Assay": "+++ (Compounds with a Cisplatin sensitization value of <0.02 μM are marked with “+++.”)"}]}]}
